How the values were obtained:
barnyardgrass [1] = assay: Test C preemergence; type: in vivo, Echinochloa crusgalli; settings: 0 to 100 scale (0 no effect, 100 complete control); for Plant response rating, Barnyardgrass: Preemergence, 500 g ai/ha, visual rating after 10 days; for Barnyardgrass plant response rating: preemergence, 125 g ai/ha
Procedure, shortened: (§1)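 Pre: seeds in loam/sand, directed soil spray. Post: 1–2 leaf plants, 2–10 cm. Cmpd in non-phytotoxic solvent + surfactant. Greenhouse 10 d; visual rating vs untreated, 0 = none, 100 = complete control.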

blackgrass [2] = assay: Test C preemergence; type: in vivo, Alopecurus myosuroides; settings: 0 to 100 scale (0 no effect, 100 complete control); for Plant response rating, Blackgrass: Preemergence, 500 g ai/ha, visual rating after 10 days; for Blackgrass plant response rating: Test C, preemergence, 125 g ai/ha
Procedure, shortened: as §1

corn [3] = assay: Test C preemergence; type: in vivo, Zea mays; settings: 0 to 100 scale (0 no effect, 100 complete control); for Corn plant response rating: preemergence
Procedure, shortened: as §1

green foxtail [4] = assay: Test C preemergence; type: in vivo, Setaria viridis; settings: 0 to 100 scale (0 no effect, 100 complete control); for Foxtail, Green plant response rating: preemergence
Procedure, shortened: as §1

kochia [5] = assay: Test C preemergence; type: in vivo, Bassia scoparia; settings: 0 to 100 scale (0 no effect, 100 complete control); for Kochia plant response rating: preemergence
Procedure, shortened: as §1

oat, wild [6] = assay: Test C preemergence; type: in vivo, Avena fatua; settings: 0 to 100 scale (0 no effect, 100 complete control); for Oat, Wild plant response rating: preemergence
Procedure, shortened: as §1

pigweed, palmer [7] = assay: Test C preemergence; type: in vivo, Amaranthus palmeri; settings: 0 to 100 scale (0 no effect, 100 complete control); for Pigweed, Palmer plant response rating: preemergence
Procedure, shortened: as §1

ragweed [8] = assay: Test C preemergence; type: in vivo, Ambrosia artemisiifolia; settings: 0 to 100 scale (0 no effect, 100 complete control); for Ragweed plant response rating: preemergence
Procedure, shortened: as §1

ryegrass, Italian [9] = assay: Test C preemergence; type: in vivo, Lolium multiflorum; settings: 0 to 100 scale (0 no effect, 100 complete control); for Ryegrass, Italian plant response rating: preemergence
Procedure, shortened: as §1

soybean [10] = assay: Test C preemergence; type: in vivo, Glycine max; settings: 0 to 100 scale (0 no effect, 100 complete control); for Soybean plant response rating: preemergence
Procedure, shortened: as §1

wheat [11] = assay: Test C preemergence; type: in vivo, Triticum aestivum; settings: 0 to 100 scale (0 no effect, 100 complete control); for Wheat plant response rating: preemergence
Procedure, shortened: as §1

barnyardgrass [12] = assay: Test C postemergence; type: in vivo, Echinochloa crusgalli; settings: 10 days
Procedure, shortened: as §1

blackgrass [13] = assay: Test C postemergence; type: in vivo, Alopecurus myosuroides; settings: 10 days
Procedure, shortened: as §1

corn [14] = assay: Test C postemergence; type: in vivo, Zea mays; settings: 10 days
Procedure, shortened: as §1

green foxtail [15] = assay: Test C postemergence; type: in vivo, Setaria viridis; settings: 10 days
Procedure, shortened: as §1

kochia [16] = assay: Test C postemergence; type: in vivo, Bassia scoparia; settings: 10 days
Procedure, shortened: as §1

oat, wild [17] = assay: Test C postemergence; type: in vivo, Avena fatua; settings: 10 days
Procedure, shortened: as §1

pigweed, palmer [18] = assay: Test C postemergence; type: in vivo, Amaranthus palmeri; settings: 10 days
Procedure, shortened: as §1

ragweed [19] = assay: Test C postemergence; type: in vivo, Ambrosia artemisiifolia; settings: 10 days
Procedure, shortened: as §1

ryegrass, Italian [20] = assay: Test C postemergence; type: in vivo, Lolium multiflorum; settings: 10 days
Procedure, shortened: as §1

soybean [21] = assay: Test C postemergence; type: in vivo, Glycine max; settings: 10 days
Procedure, shortened: as §1

wheat [22] = assay: Test C postemergence; type: in vivo, Triticum aestivum; settings: 10 days
Procedure, shortened: as §1

galium = assay: Test C postemergence; type: in vivo, Galium aparine; settings: 10 days
Procedure, shortened: as §1

horseweed = assay: Test C postemergence; type: in vivo, Erigeron canadensis; settings: 10 days
Procedure, shortened: as §1

barnyardgrass [23] = assay: Test D flooded paddy test; type: in vivo, Echinochloa crus-galli; settings: 250 g ai/ha, applied to paddy water, visual rating after 13 to 14 days, scale 0 to 100 (0 no effect, 100 complete control)
Procedure, shortened: (§2)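 Visual ratings from 0, meaning no effect, to 100, meaning complete control, were assigned against untreated controls 13 to 14 days after compounds were added to the floodwater of pots kept 3 cm deep, with plants at the 2-leaf stage.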

ducksalad = assay: Test D flooded paddy test; type: in vivo, Heteranthera limosa; settings: 250 g ai/ha, applied to paddy water, visual rating after 13 to 14 days, scale 0 to 100 (0 no effect, 100 complete control)
Procedure, shortened: as §2

rice = assay: Test D flooded paddy test; type: in vivo, Oryza sativa; settings: 250 g ai/ha, applied to paddy water, visual rating after 13 to 14 days, scale 0 to 100 (0 no effect, 100 complete control)
Procedure, shortened: as §2

sedge, umbrella = assay: Test D flooded paddy test; type: in vivo, Cyperus difformis; settings: 250 g ai/ha, applied to paddy water, visual rating after 13 to 14 days, scale 0 to 100 (0 no effect, 100 complete control)
Procedure, shortened: as §2

[24] = 125 g ai/ha, postemergence, 0 to 100 scale, 0 no effect, 100 complete control
[25] = Postemergence, 500 g ai/ha, visual 0 to 100 scale (0 no effect, 100 complete control)
[26] = Preemergence, 500 g ai/ha, visual rating after 10 days

## Cc1cccc2c1O[C@@H](C)CN2C(=O)c1cccc(-n2cnc(C(C)(C)O)n2)c1 [Compound 278]
Barnyardgrass [1]
  Plant response rating, Barnyardgrass: 100
Barnyardgrass [1]; Test C
  Barnyardgrass plant response rating: 100
Blackgrass [2]
  Plant response rating, Blackgrass: 90
  Blackgrass plant response rating: 90
Corn [3]; 500 g ai/ha
  Corn plant response rating: 80
Green foxtail [4]; 500 g ai/ha
  Foxtail, Green plant response rating: 100
Green foxtail [4]; Test C, 125 g ai/ha
  Foxtail, Green plant response rating: 100
Kochia [5]; 500 g ai/ha
  Kochia plant response rating: 100
Kochia [5]; Test C, 125 g ai/ha
  Kochia plant response rating: 90
oat, wild [6]; 500 g ai/ha
  Oat, Wild plant response rating: 90
oat, wild [6]; Test C, 125 g ai/ha
  Oat, Wild plant response rating: 80
pigweed, palmer [7]; 500 g ai/ha
  Pigweed, Palmer plant response rating: 100
pigweed, palmer [7]; Test C, 125 g ai/ha
  Pigweed, Palmer plant response rating: 100
Ragweed [8]; 500 g ai/ha
  Ragweed plant response rating: 80
Ragweed [8]; Test C, 125 g ai/ha
  Ragweed plant response rating: 70
ryegrass, Italian [9]; 500 g ai/ha
  Ryegrass, Italian plant response rating: 100
ryegrass, Italian [9]; Test C, 125 g ai/ha
  Ryegrass, Italian plant response rating: 80
Soybean [10]; 500 g ai/ha
  Soybean plant response rating: 100
Soybean [10]; Test C, 125 g ai/ha
  Soybean plant response rating: 90
Wheat [11]; 500 g ai/ha
  Wheat plant response rating: 100
Wheat [11]; Test C, 125 g ai/ha
  Wheat plant response rating: 50
Barnyardgrass [12]; [24]
  Plant response rating, Barnyardgrass: 50
Barnyardgrass [12]; [25]
  Plant response rating, Barnyardgrass: 90
Blackgrass [13]; [24]
  Plant response rating, Blackgrass: 90
Blackgrass [13]; [25]
  Plant response rating, Blackgrass: 90
Corn [14]; [24]
  Plant response rating, Corn: 50
Corn [14]; [25]
  Plant response rating, Corn: 90
Green foxtail [15]; [24]
  Plant response rating, Foxtail, Green: 50
Green foxtail [15]; [25]
  Plant response rating, Foxtail, Green: 90
Kochia [16]; [24]
  Plant response rating, Kochia: 80
oat, wild [17]; [24]
  Plant response rating, Oat, Wild: 80
pigweed, palmer [18]; [24]
  Plant response rating, Pigweed, Palmer: 50
Ragweed [19]; [24]
  Plant response rating, Ragweed: 70
ryegrass, Italian [20]; [24]
  Plant response rating, Ryegrass, Italian: 80
Soybean [21]; [24]
  Plant response rating, Soybean: 100
Wheat [22]; [24]
  Plant response rating, Wheat: 70
galium; [24]
  Plant response rating, Galium: 100
galium; [25]
  Plant response rating, Galium: 100
horseweed; [24]
  Plant response rating, Horseweed: 0
horseweed; [25]
  Plant response rating, Horseweed: 50
Barnyardgrass [23]
  Plant response rating, Barnyardgrass (Flood): 45
ducksalad
  Plant response rating, Ducksalad (Flood): 100
rice
  Plant response rating, Rice (Flood): 15
sedge, umbrella
  Plant response rating, Sedge, Umbrella (Flood): 100

## Cc1ccc(-n2cnc(C3(C)CCC3)n2)cc1C(=O)N1C[C@H](C)Oc2c(Cl)cccc21 [Compound 167]
Barnyardgrass [1]
  Barnyardgrass plant response rating: 90
  Plant response rating, Barnyardgrass: 100
Blackgrass [2]
  Plant response rating, Blackgrass: 70
  Blackgrass plant response rating: 30
Corn [3]; [26]
  Plant response rating, Corn: 0
Corn [3]; Test C, 125 g ai/ha
  Corn plant response rating: 0
Green foxtail [4]; [26]
  Plant response rating, Foxtail, Green: 100
Green foxtail [4]; Test C, 125 g ai/ha
  Foxtail, Green plant response rating: 100
Kochia [5]; [26]
  Plant response rating, Kochia: 100
Kochia [5]; Test C, 125 g ai/ha
  Kochia plant response rating: 90
oat, wild [6]; [26]
  Plant response rating, Oat, Wild: 50
oat, wild [6]; Test C, 125 g ai/ha
  Oat, Wild plant response rating: 20
pigweed, palmer [7]; [26]
  Plant response rating, Pigweed, Palmer: 100
pigweed, palmer [7]; Test C, 125 g ai/ha
  Pigweed, Palmer plant response rating: 100
Ragweed [8]; [26]
  Plant response rating, Ragweed: 80
Ragweed [8]; Test C, 125 g ai/ha
  Ragweed plant response rating: 10
ryegrass, Italian [9]; [26]
  Plant response rating, Ryegrass, Italian: 90
ryegrass, Italian [9]; Test C, 125 g ai/ha
  Ryegrass, Italian plant response rating: 80
Soybean [10]; [26]
  Plant response rating, Soybean: 80
Soybean [10]; Test C, 125 g ai/ha
  Soybean plant response rating: 40
Wheat [11]; [26]
  Plant response rating, Wheat: 0
Wheat [11]; Test C, 125 g ai/ha
  Wheat plant response rating: 0
Barnyardgrass [12]; [24]
  Plant response rating, Barnyardgrass: 20
Barnyardgrass [12]; [25]
  Plant response rating, Barnyardgrass: 60
Blackgrass [13]; [24]
  Plant response rating, Blackgrass: 0
Blackgrass [13]; [25]
  Plant response rating, Blackgrass: 70
Corn [14]; [24]
  Plant response rating, Corn: 10
Corn [14]; [25]
  Plant response rating, Corn: 20
Green foxtail [15]; [24]
  Plant response rating, Foxtail, Green: 50
Green foxtail [15]; [25]
  Plant response rating, Foxtail, Green: 90
Kochia [16]; [24]
  Plant response rating, Kochia: 90
Kochia [16]; [25]
  Plant response rating, Kochia: 100
oat, wild [17]; [24]
  Plant response rating, Oat, Wild: 0
oat, wild [17]; [25]
  Plant response rating, Oat, Wild: 20
pigweed, palmer [18]; [24]
  Plant response rating, Pigweed, Palmer: 90
pigweed, palmer [18]; [25]
  Plant response rating, Pigweed, Palmer: 100
Ragweed [19]; [24]
  Plant response rating, Ragweed: 90
Ragweed [19]; [25]
  Plant response rating, Ragweed: 90
ryegrass, Italian [20]; [24]
  Plant response rating, Ryegrass, Italian: 20
ryegrass, Italian [20]; [25]
  Plant response rating, Ryegrass, Italian: 80
Soybean [21]; [24]
  Plant response rating, Soybean: 100
Soybean [21]; [25]
  Plant response rating, Soybean: 100
Wheat [22]; [24]
  Plant response rating, Wheat: 10
Wheat [22]; [25]
  Plant response rating, Wheat: 20
galium; [24]
  Plant response rating, Galium: 90
galium; [25]
  Plant response rating, Galium: 100
horseweed; [24]
  Plant response rating, Horseweed: 10
horseweed; [25]
  Plant response rating, Horseweed: 30
Barnyardgrass [23]
  Plant response rating, Barnyardgrass (Flood): 0
ducksalad
  Plant response rating, Ducksalad (Flood): 0
rice
  Plant response rating, Rice (Flood): 0
sedge, umbrella
  Plant response rating, Sedge, Umbrella (Flood): 0

Reference: patent publication US20260262643A1, “HERBICIDAL BENZOXAZINES” (FMC CORPORATION, priority 2022, published 2026)
